Measurements published in US20260193163A1, “CRYSTAL FORM OF L-ARGININE (S)-2-(1-ACETOXY-N-PENTYL)BENZOATE, AND PREPARATION METHOD THEREFOR AND USE THEREOF” (JIANGSU KANION PHARMACEUTICAL CO., LTD., priority 2023, published 2026).

Columns and labels:
[1] = Intrinsic dissolution rate in SGF or FeSSIF; assay type: physicochemical; settings: 37° C., 100 rpm, 5-120 min, HPLC
Method: Samples of crystal form I (25 mg each) were weighed, placed into intrinsic dissolution rate metal modules, and maintained at a pressure of 20 pounds for 30 s and then placed in 20 mL of SGF (Simulated Gastric Fluid) or FeSSIF (Fed-State Simulated Intestinal Fluid) physiological medium, respectively. The medium was maintained at 37° C. and a rotation speed at 100 rpm throughout the process. Then, at 5, 15, 30, 45, 60, 90, and 120 min, respectively, a 0.5 mL aliquot of the solution was taken and filtered through a 0.22 μm aqueous microfiltration membrane. And the volume was replenished with 0.5 mL of the corresponding physiological medium. The concentration was determined according to an HPLC content assay method.

[2] = Crystal form stability study (PXRD, DSC, TGA on day 0, 5, 10); assay type: physicochemical; settings: 10 days
Method: Samples of crystal form I were subjected to physical stability tests under different storage conditions. The storage conditions were respectively: • (1) High temperature: 60° C. • (2) High humidity: RH 90%±5% • (3) Under light exposure: 4500 lx±500 lx, with the total illumination from the light source reaching 1.2×10^6 lux·hr PXRD, DSC, and TGA tests were performed on the samples on day 0, day 5, and day 10, respectively, to investigate the stability of the samples under high temperature, high humidity, and light exposure conditions. The experimental results are detailed in FIG. 8 to FIG. 16 of the description.

CCCC[C@H](OC(C)=O)c1ccccc1C(=O)O [crystal form I, L-arginine (S)-2-(1-acetoxy-n-pentyl)benzoate]
Dissolution rate compared with the solid obtained in Comparative Example 1 [1]: significantly higher | Change of powder diffraction pattern, DSC trace and TGA trace (physical stability, crystal form transformation) ([2]; high humidity RH 90%±5%): no significant difference | Change of powder diffraction pattern, DSC trace and TGA trace (physical stability, crystal form transformation) ([2]; high temperature 60° C.): no significant difference | Change of powder diffraction pattern, DSC trace and TGA trace (physical stability, crystal form transformation) ([2]; light exposure 4500 lx±500 lx, total illumination 1.2×10^6 lux·hr): no significant difference
